Where two headings read alike, the source gives them in different places. Marks after values point to notes of the source that are not given here.
Experiments:
[1] = target: T1, monooxygenase component of styrene monooxygenase (StyA) (Pseudomonas sp, UniProt O50214); test: [Cp*Rh(bpy)(H2O)]2+ driven, StyA-catalyzed epoxidation / sulfoxidation; assay type: biochemical; conditions: substrate 2 mM, reaction time 15 min, 37 °C, 0.2 mM [Cp*Rh(bpy)(H2O)]2+, 1.47 μM StyA; for Epoxides concentration: 20 μM FAD, Positive = no standard substances available yet
T1 sequence (O50214 whole entry): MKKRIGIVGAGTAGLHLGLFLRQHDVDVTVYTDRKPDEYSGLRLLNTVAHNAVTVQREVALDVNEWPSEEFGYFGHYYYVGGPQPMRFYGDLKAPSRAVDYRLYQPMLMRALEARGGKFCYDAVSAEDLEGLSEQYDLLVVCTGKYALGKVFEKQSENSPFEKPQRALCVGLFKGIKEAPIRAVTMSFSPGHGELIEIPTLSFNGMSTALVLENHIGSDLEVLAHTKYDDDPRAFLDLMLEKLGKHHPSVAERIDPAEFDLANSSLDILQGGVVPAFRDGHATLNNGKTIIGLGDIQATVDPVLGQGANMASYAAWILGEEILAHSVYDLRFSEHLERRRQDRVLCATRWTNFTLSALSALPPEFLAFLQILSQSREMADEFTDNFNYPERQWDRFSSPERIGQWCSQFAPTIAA
Description: In a typical experimental setup 1 ml total volume was placed in an Eppendorf cup in a Thermomixer. The temperature was set to 37° C. and the reaction mixture was shaken thoroughly to ensure O2 intake.
Product formation was followed by reversed phase HPLC. The HPLC system (Merck) consisted of a D-7000 controller, L-7200 autosampler, L-7400 UV detector, L-7100 liquid chromatography pump and was fitted with a CC250/4 Nucleosil 100-5 C18 HD column. Samples were eluted under isocratic conditions using 60% acetonitrile and 40% water at a flow rate of 1 ml×min^−1. The elution pattern was monitored at 210 nm.
0.2 mM [Cp*Rh(bpy)(H2O)]^2+, 0.05 mM FAD, 0.005 mM FMN, 2 mM styrene, 280 U catalase, and 1.16 μM StyA in 50 mM potassium phosphate buffer with 150 mM sodium formate were incubated at 37° C. and agitation at 1500 rpm. At intervals, reactions were stopped by addition of one equivalent volume of cold acetonitrile. After centrifugation (15 min at 4° C. and 23000×g the upper phase was analyzed by reverse phase HPLC. Concentrations were corrected according to the phase ratio after centrifugation. Results from this experiment are given in FIG. 10 and Table 3.
0.2 mM [Cp*Rh(bpy)(H2O)]^2+, 0.02 mM FAD, 2 mM substrate, 200 U catalase, and 1.47 μM StyA in 50 mM potassium phosphate buffer with 150 mM sodium formate were incubated at 37° C. and agitation at 1500 rpm.
Styrene oxide was analyzed using a CC200/4 Nucleodex α-PM (Machery-Nagel). As eluent 60% methanol and 40% 6.2 mM TEAA in water was used at a flow rate of 0.7 ml×min^−1. 1,2-Dihydronaphthalene oxide, trans-β-Methylstyrene oxide, indene oxide, and methyl phenyl sulfoxide were extracted from the reaction buffer with one aliquot hexane und analyzed unsing normal phase HPLC with a CHIRACEL OB—H column and hexane:isopropanol 95:5 (9:1 for methyl phenyl sulfoxide) at a flow rate of 0.5 ml*min^−1 as mobile phase. As reference either authentical samples of racemic epoxides were used. (Table 4). […]

[2] = target: T2, Alkane Hydoxylase from P. Oleovorans (AlkB) (Ectopseudomonas oleovorans, UniProt P12691); test: Direct reduction of alkane hydroxylase AlkB by [Cp*Rh(bpy)(H2O)]2+, hydroxylation of 3-ethyl toluene; assay type: biochemical; conditions: 200 μM [Cp*Rh(bpy)(H2O)]2+, 2 mM 3-ethyl toluene, AlkB crude extract, 30 °C, 20 minutes; average of 4 experiments
T2 construct: made in house; host or cells: E. coli
T2 sequence (P12691 whole entry): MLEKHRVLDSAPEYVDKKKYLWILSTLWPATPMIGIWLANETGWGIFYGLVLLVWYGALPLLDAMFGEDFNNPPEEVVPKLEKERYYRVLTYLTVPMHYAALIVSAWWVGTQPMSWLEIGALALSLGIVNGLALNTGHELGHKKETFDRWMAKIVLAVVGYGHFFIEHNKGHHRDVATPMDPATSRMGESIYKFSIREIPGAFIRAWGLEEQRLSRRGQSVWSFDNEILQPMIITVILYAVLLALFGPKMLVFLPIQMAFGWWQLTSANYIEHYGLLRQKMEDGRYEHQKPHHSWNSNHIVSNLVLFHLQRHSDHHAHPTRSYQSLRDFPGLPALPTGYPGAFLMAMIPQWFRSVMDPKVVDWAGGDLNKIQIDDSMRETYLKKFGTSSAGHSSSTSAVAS
Description: In a typical experiment, 1 ml total volume of 200 μM [Cp*Rh(bpy)(H2O)]^2+ are incubated with 2 mM 3-ethyl toluene and 100 μl of a cell crude extract of recombinant E. coli overexpressing AlkB in a final volume of 1 ml 100 mM potassium phosphate buffer (pH 7.4) supplemented with 150 mM sodium formate and 1 mg/ml bovine serum albumin at 30° C. and vigorous shaking. After 20 minutes the reaction is stopped by addition of […] perchloric acid (10%). After centrifugation the supernatant is extracted with one aliquot of hexane. The organic phase is analyzed by normal phase HPLC (Nucleosil 250/3 100-5 C, mobile phase: hexane/isopropanol 95:5, flow rate=0.5 ml min^−1).

[3] = target: CytC (Equus caballus, UniProt P00004)
Chain of CytC (P00004 whole entry): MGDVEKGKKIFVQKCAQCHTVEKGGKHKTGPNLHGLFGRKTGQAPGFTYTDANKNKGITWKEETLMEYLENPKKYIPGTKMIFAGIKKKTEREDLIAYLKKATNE
Description: On the other hand CytC is inactivated by hydrogen peroxide, which can be followed by the disappearing Soret-peak (heme absorbance at k=408 nm).
In a typical experiment […] CytC is incubated at 30° C. in the presence of 1 mM hydrogen peroxide. At intervals of 2 min the UV-spectrum (between 300 and 650 nm) is recorded (FIG. 18).
In identical experiments, the absorbance at 408 nm was followed over time.

[4] = target: T1, monooxygenase component of styrene monooxygenase (StyA); test: [Cp*Rh(bpy)(H2O)]2+ driven, StyA-catalyzed epoxidation / sulfoxidation; assay type: biochemical; conditions: substrate 4 mM, reaction time 15 min, 37 °C, 0.2 mM [Cp*Rh(bpy)(H2O)]2+, 1.47 μM StyA

Structure (SMILES): C1=Cc2ccccc2CC1 [1,2-Dihydronaphthalene]
- ee-value of the epoxides [1]: 98.9%
- Epoxides concentration [1]: 0.23 mM

Structure (SMILES): C=Cc1cccc(Cl)c1 [3-Chloro-styrene]
- Epoxides concentration [1]: 0.37 mM

Structure (SMILES): Cc1cccc(CCO)c1 [3-methylphenethylalcohol]
- 3-methylphenethylalcohol produced [2]: about 0.015 mM

Structure (SMILES): C=Cc1ccc(Br)cc1 [4-Bromo styrene]
- Epoxides concentration [1]: Positive^[c]

Structure (SMILES): C=Cc1ccc(Cl)cc1 [4-Chloro styrene]
- Epoxides concentration [1]: Positive^[c]

Structure (SMILES): C=Cc1ccc(F)cc1 [4-Fluoro styrene]
- Epoxides concentration [1]: Positive^[c]

Structure (SMILES): C=Cc1ccc(OC)cc1 [4-Methoxy styrene]
- Epoxides concentration [1]: Positive^[c]

Structure (SMILES): C=Cc1ccc(C)cc1 [4-Methyl-styrene]
- Epoxides concentration [1]: 0.29 mM

Structure (SMILES): OO [H2O2, hydrogen peroxide]
- CytC enzymatic activity after preincubation (sulfoxidation of thioanisol) ([3]; CytC 15 μM, 1 mM hydrogen peroxide, 10 minutes): almost complete loss of enzymatic activity
- dE (408 nm)/dt ([3]; [CytC] 5 μM, [H2O2] 5 mM): -0.0116 min⁻¹
- dE (408 nm)/dt ([3]; [CytC] 5 μM, [H2O2] 10 mM): -0.0231 min⁻¹
- dE (408 nm)/dt ([3]; [CytC] 5 μM, [H2O2] 20 mM): -0.0399 min⁻¹
- dE (408 nm)/dt ([3]; [CytC] 7.5 μM, [H2O2] 10 mM): -0.0281 min⁻¹
- dE (408 nm)/dt ([3]; [CytC] 10 μM, [H2O2] 5 mM): -0.0234 min⁻¹
- dE (408 nm)/dt ([3]; [CytC] 10 μM, [H2O2] 7.5 mM): -0.0330 min⁻¹
- dE (408 nm)/dt ([3]; [CytC] 10 μM, [H2O2] 10 mM): -0.0438 min⁻¹
- dE (408 nm)/dt ([3]; [CytC] 10 μM, [H2O2] 15 mM): -0.0637 min⁻¹
- dE (408 nm)/dt ([3]; [CytC] 10 μM, [H2O2] 20 mM): -0.0821 min⁻¹

Structure (SMILES): C1=Cc2ccccc2C1 [Indene]
- ee-value of the epoxides [1]: 97.9%
- Epoxides concentration [1]: 0.42 mM

Structure (SMILES): CCSc1ccccc1 [Phenyl ethyl sulfide]
- Epoxides concentration [1]: Positive^[c]

Structure (SMILES): C=Cc1ccccc1 [Styrene]
- Epoxides concentration ([4]; 20 μM FAD): 0.33 mM
- ee-value of the epoxides ([4]; (S)): <98 (S)^[a] %

Structure (SMILES): CSc1ccccc1 [Thioanisole]
- ee-value of the epoxides [1]: 23.3%
- Epoxides concentration [1]: 0.33 (Methyl mM

Structure (SMILES): C/C=C/c1ccccc1 [Trans-β-Methylstyrene]
- ee-value of the epoxides [1]: 97.6%
- Epoxides concentration [1]: 0.28 mM

— patent US20040067565A1, “Selective functionalization of hydrocarbons with isolated oxygenases and mediator based regeneration” (priority 2002, published 2004)
